Source: ChEMBL document CHEMBL1201862, “PubChem BioAssay data set” (2004)
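A five-concentration, 48-hour dose response in 96-well plates underlies each endpoint, interpolated linearly between surrounding concentrations. The concentration for 50% growth inhibition is given as GI50.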 Active and inactive are the calls of the source. Rule as the data show it: active = GI50 up to about 1.1 µM and inactive = higher.

Columns and labels:
Assay in all cases: NCI anticancer screen, dose series, 48 h
[1] = test system: LXFL 529
[2] = test system: DMS-273
[3] = test system: RXF 631
[4] = test system: DMS-114
[5] = test system: KM-20L2
[6] = test system: SNB-78
[7] = test system: HOP-18
[8] = test system: XF498
[9] = test system: DLD-1

Structure (SMILES)	GI50 [1]	GI50 [2]	GI50 [3]	GI50 [4]	GI50 [5]	GI50 [6]	GI50 [7]	GI50 [8]	GI50 [9]
COC(=O)C(=O)C(C(=O)C(=O)Nc1cc(C)ccc1C)c1nc2ccc(C(=O)c3ccccc3)cc2nc1O (configuration not stated)	43.5 µM (inactive)	74.3 µM (inactive)	> 100 µM (inactive)	51.4 µM (inactive)	> 100 µM (inactive)	58.6 µM (inactive)	23.8 µM (inactive)		
CC(C)NCCCC(C)Nc1ccnc2ccc3nn(C)nc3c12 (configuration not stated)	57.1 µM (inactive)	41.7 µM (inactive)		61.7 µM (inactive)	> 10 µM (inactive)	43.1 µM (inactive)	9.4 µM (inactive)	> 100 µM (inactive)	71.9 µM (inactive)
COc1cc(Cl)cc(N(O)C(C)=O)c1OCc1ccccc1	75.9 µM (inactive)	49.9 µM (inactive)		25.6 µM (inactive)	83.2 µM (inactive)	> 100 µM (inactive)	> 100 µM (inactive)	36.9 µM (inactive)	> 100 µM (inactive)
N#CC(C(=O)/C(=N/NC(=O)c1ccccc1O)C(C#N)c1ccccc1)c1ccccc1 (configuration not stated)	> 100 µM (inactive)	> 100 µM (inactive)	> 100 µM (inactive)	> 100 µM (inactive)	> 100 µM (inactive)	> 100 µM (inactive)	> 100 µM (inactive)	> 100 µM (inactive)	> 100 µM (inactive)
Cc1ccc(NC(=O)C(=O)C2C(=O)NC(=O)NC2=O)c(C)c1	> 100 µM (inactive)	> 100 µM (inactive)	> 100 µM (inactive)	> 100 µM (inactive)	> 100 µM (inactive)	> 100 µM (inactive)	> 100 µM (inactive)		> 100 µM (inactive)
C=C1CC(CC(=O)C(C)CC2CC(=C)C(=O)O2)OC1=O (configuration not stated)	12.8 µM (inactive)	23.2 µM (inactive)	46.3 µM (inactive)	21.6 µM (inactive)	33 µM (inactive)	17.3 µM (inactive)	22.4 µM (inactive)	23.8 µM (inactive)	14.4 µM (inactive)
Cc1nc(N)sc1C(=O)/C=C/c1ccc([N+](=O)[O-])cc1		> 100 µM (inactive)		> 100 µM (inactive)	> 100 µM (inactive)	> 100 µM (inactive)	> 100 µM (inactive)		> 100 µM (inactive)
CCOC(=O)c1c2ccc(/C=C/C(=O)OC)ccc-2c(C(=O)OCC)c1N	> 100 µM (inactive)	> 100 µM (inactive)		> 100 µM (inactive)	> 100 µM (inactive)		> 100 µM (inactive)		> 100 µM (inactive)
Nc1ccc2ncc(NCc3ccc(F)cc3)nc2c1	> 100 µM (inactive)	> 100 µM (inactive)		49 µM (inactive)	> 100 µM (inactive)	> 100 µM (inactive)	> 100 µM (inactive)	19.5 µM (inactive)	> 100 µM (inactive)
C[N+](C)(C)CC(=O)N/N=C(\C(=O)Nc1ccc(Cl)cc1)C1C(=O)N(c2ccccc2)N=C1N (configuration not stated)	> 100 µM (inactive)	> 100 µM (inactive)		> 100 µM (inactive)	> 100 µM (inactive)	> 100 µM (inactive)			> 100 µM (inactive)
COC(=O)C(C(=O)Cc1ccccc1[N+](=O)[O-])C(=O)OC	> 100 µM (inactive)	> 100 µM (inactive)	> 100 µM (inactive)		> 100 µM (inactive)		> 100 µM (inactive)	> 100 µM (inactive)	> 100 µM (inactive)
O=C1C[C@H]2CCCN2[C@@H](c2ccccc2)C1	> 100 µM (inactive)	> 100 µM (inactive)	> 100 µM (inactive)		> 100 µM (inactive)	> 100 µM (inactive)	> 100 µM (inactive)	> 100 µM (inactive)	
COc1cc2c(cn1)[nH]c1ccccc12	72.3 µM (inactive)	> 100 µM (inactive)	> 100 µM (inactive)	81.5 µM (inactive)	> 100 µM (inactive)	59.3 µM (inactive)	> 100 µM (inactive)	35.8 µM (inactive)	> 100 µM (inactive)
CSC(=Nc1nnc(-c2ccc([N+](=O)[O-])cc2)s1)SC	37 µM (inactive)	41.1 µM (inactive)		25.9 µM (inactive)	> 100 µM (inactive)	12.4 µM (inactive)	5.64 µM (inactive)	21.6 µM (inactive)	34.7 µM (inactive)
O=C1NC(=O)C2C1c1[nH]c3ccccc3c1C1CCCC12 (configuration not stated)	6.37 µM (inactive)	0.481 µM (active)	3.44 µM (inactive)	1.35 µM (inactive)		6.35 µM (inactive)	25.3 µM (inactive)	0.538 µM (active)	3.87 µM (inactive)
NC(=S)N/N=C1/C(=O)N(c2ccc(Cl)cc2Cl)C(=O)C(=O)C1c1nc2ccccc2s1 (configuration not stated)	> 100 µM (inactive)	> 100 µM (inactive)		> 100 µM (inactive)	> 100 µM (inactive)	> 100 µM (inactive)	98.4 µM (inactive)	> 100 µM (inactive)	
NC(=S)N/N=C/C(=C/Nc1ccccc1)[N+](=O)[O-]	> 100 µM (inactive)			15.7 µM (inactive)	> 100 µM (inactive)			> 100 µM (inactive)	> 100 µM (inactive)
O=c1[nH]cnc2c(COCCO)c[nH]c12	> 100 µM (inactive)	> 100 µM (inactive)	> 100 µM (inactive)	> 100 µM (inactive)	> 100 µM (inactive)	> 100 µM (inactive)	> 100 µM (inactive)	> 100 µM (inactive)	> 100 µM (inactive)
CCCCCCCC(=O)OCC1OC(n2cc(F)c(=O)[nH]c2=O)C(NC(=O)OCc2ccccc2)C(O)C1O (configuration not stated)	31.3 µM (inactive)	40 µM (inactive)		41.6 µM (inactive)	47.1 µM (inactive)	> 100 µM (inactive)			
O=C(Nc1cc(Cl)cc(Cl)c1)/C(Cc1nc2ccccc2nc1O)=N/NC(=O)c1ccncc1	> 100 µM (inactive)		> 100 µM (inactive)	> 100 µM (inactive)	> 100 µM (inactive)	> 100 µM (inactive)			> 100 µM (inactive)
CN(C)CC1CCC(CN(C)C)C1=NO (configuration not stated)	> 100 µM (inactive)	> 100 µM (inactive)		> 100 µM (inactive)	> 100 µM (inactive)	> 100 µM (inactive)	> 100 µM (inactive)		> 100 µM (inactive)
CC(C)N1CCOC(c2ccc(O)c(O)c2)C1 (configuration not stated)	> 100 µM (inactive)	> 100 µM (inactive)	> 100 µM (inactive)	> 100 µM (inactive)	> 100 µM (inactive)	> 100 µM (inactive)		> 100 µM (inactive)	> 100 µM (inactive)
COC1(C)Cc2c(c(C)c(O)c3c2C(=O)C=C(Cl)C3=O)O1 (configuration not stated)	15.1 µM (inactive)	> 64.6 µM (inactive)		28 µM (inactive)	> 100 µM (inactive)			23.6 µM (inactive)	15.7 µM (inactive)
